Measurements as given in patent publication US5308843A, “Method of inhibiting mammalian topoisomerase II and malignant cell growth in mammals, with substituted (S)-3-methyl-7-oxo-2,3-dihydro-7H-pyrido[1,2,3-de][1,4 ]-benzoxazine(and-benzothiazine)-6-carboxylic acids” (Sterling Drug Inc., priority 1990, dated 1994).
Entries after “also recorded” stand apart in the source; their conditions may differ.

Experiments:
human topoisomerase II = molecular target: T1, human topoisomerase II (Homo sapiens, UniProt P11388); experiment: Mammalian (human) topoisomerase II inhibition assay: topo II-DNA complex stabilisation; format: biochemical; settings: concentration with activity equal to the EC50 of reference mAMSA; 20 min at 37° C.
T1 construct: Topo II was purified from late log phase suspension cultures of HeLa WIS; endogenous in cells; host or cells: HeLa WIS (late log phase suspension cultures); native enzyme purified in house
Text: Mammalian Topoisomerase II Inhibition Assay Procedure
The inhibition of human topoisomerase II (hereafter topo II) was quantitated by a procedure adapted from that described by Trask et al., EMBO J., 3, 671-676 (1984). The assay quantitates the amount of topo II covalently complexed by DNA at equilibrium during a topo II reaction. This assay determines the potential of a compound to stabilize this complex, which potential is closely related to the cytotoxicity of the compound.
Topo II was purified from late log phase suspension cultures of HeLa WIS by an adaption of the method described by Per et al., Mol. Pharmacol., 32, 17-25 (1987).
Assays (in duplicate) were assembled at 4° C. Assay mix (25 μl) was distributed in Beckman (No. 265270) 1.5 ml microtitre tubes followed by the addition of 5 μl test compound to yield the final concentrations of assay components:
4 ng 3' end labeled (32p) pBR322 DNA (10^7 DPM/μg)
The assay mix including the test compound was incubated for 20 minutes at 37° C. The reaction was terminated at 37° C. by the addition of 3 μl 10% SDS followed by the addition of 266 μl 10 mM Tris-Cl pH 7.5, 20 μg/ml BSA, 20 μg/ml calf thymus DNA, 1% SDS.
A SDS/protein precipitate was formed by the addition of 28 μl 2.5M KCl followed by chilling on ice for a minimum of 10 minutes. The precipitate was collected and washed with a Brandell cell harvester on a GFB glass fiber filter membrane as follows. The contents of the assay tube were drawn up into the harvester. The tube was then rinsed 7× with 10 mM Tris-Cl pH 7.5, 1 mM EDTA and 100 mM KCl. The precipitate was washed with 1 L of a solution of 10 mM Tris-Cl pH 7.5, 1 mM EDTA, 100 mM KCl followed by 1 L of 95% ethyl alcohol and finally 0.5 L 70% of ethyl alcohol (per 48 samples in each case). After drying, CPM was determined by liquid scintillation counting with 5 ml Biofluor (NEN Research Products) or Readisafe (Beckman Instruments Inc.) cocktail.
Preparation of test compound--A stock solution (6 mg/ml) of test compound was prepared either in 0.1N sodium hydroxide or 0.2N hydrogen chloride. This solution then was diluted 1/5 into water and serially thereafter in either 0.02N sodium hydroxide or 0.04N hydrogen chloride, respectively. The stock solution and serial dilution of the test compound was stored at -20° C. prior to testing.
Screening of test compound--As an initial screen, the test compound was tested at a final concentration of 2, 20 and 200 μg/ml.
Controls--A solvent control which indicates the base level of topo II-DNA complex formed in the absence of the test compound was included in each test. A control, in which topo II was omitted, was included for each test compound at the highest drug concentration tested.
Reference agent--A dose response curve with mAMSA at 0.01, 0.08, 0.16, 0.32, 1.0 and 10 μg/ml was included in each test.
Data reduction--The EC50 (effective concentration at which 50% of the maximal DNA-topo II complex is formed) of a test compound is defined to be the concentration with activity equal to the EC50 of the reference agent, mAMSA. The maximal DNA-topo II complex formed is taken as that equal to that formed at the nearly saturating dose of mAMSA (10 μg/ml).

[1] = In vivo antitumor assay, B16 melanoma (IP); parameters: species or system mice; settings: mouse, in vivo; B16(IP) 0.5 ml 10% brie; drug IP; QD1,5,9; read-out: Maximum Tolerated Total Dose
Text: (§1) In vivo Antitumor Assay Procedure
(§2) Mice: Inbred: C3H/He; and Hybrids: B6D2F1 (C57BL/6 females×DBA/2 males), CD2F1 (Balb/c females×DBA/2 males) and B6C3F1 (C57BL/6×C3H) were bred at Wayne State University from strains obtained from the Frederick Cancer Research Facility, Frederick, Md. or from commercial suppliers.
(§3) Tumors: Murine Tumors: P388 leukemia and the following transplantable solid tumors of mice were used for in vivo testing: B16 melanoma, pancreatic ductal adenocarcinoma No. 03, colon adenocarcinoma No. 38 and mammary ductal adenocarcinoma No. 16/C. All tumors are in the Developmental Therapeutics Program frozen tumor repository, maintained by the Biological Testing Branch, Frederick, Md. Each has a detailed description, code identification number, and list of references at the National Tumor Repository. Tumors were maintained in the mouse strain of origin and were transplanted in the appropriate F1 hybrid (or the strain of origin) for therapy trials. The mice were supplied food and water ad libitum.
(§4) For P388 leukemia and B16 melanoma studies the tumor cells were implanted IP on day zero and treatment was started on day one (also IP). Titered controls were also included to facilitate the calculation of tumor cell kill.
(§5) End Points for Assessing Antitumor Activity: Quantitative end points used to assess antitumor activity included % Increased Life Span (% ILS), Tumor Cell Kill (Log10 kill), and Tumor Growth Inhibition (T/C). Long Term Survivors (45 or 60 day) were excluded from calculations of % ILS and Tumor Cell Kill.
(§6) Endpoints were calculated as follows: [formula] where Dt is the median day of death for treated and Dc is the median day of death for control groups.
(§7) The log10 cell kill was calculated from the following formula: [formula] where T-C is the tumor difference in the median day of death between the treated (T) and the control (C) groups and Td is the tumor doubling time (in days), the latter estimated from the best fit straight line from a log-linear growth plot of the control-group tumors in exponential growth. The conversion of the T-C values to log10 cell kill is possible because the Td for tumors regrowing post-treatment approximated the Td values of the tumors in untreated control mice.

B16 melanoma = experiment: In vivo antitumor assay, B16 melanoma (IP); parameters: species or system mice
Text: as §1, §2, §3, §4, §5, §6, §7

T1 sequence (P11388 whole entry): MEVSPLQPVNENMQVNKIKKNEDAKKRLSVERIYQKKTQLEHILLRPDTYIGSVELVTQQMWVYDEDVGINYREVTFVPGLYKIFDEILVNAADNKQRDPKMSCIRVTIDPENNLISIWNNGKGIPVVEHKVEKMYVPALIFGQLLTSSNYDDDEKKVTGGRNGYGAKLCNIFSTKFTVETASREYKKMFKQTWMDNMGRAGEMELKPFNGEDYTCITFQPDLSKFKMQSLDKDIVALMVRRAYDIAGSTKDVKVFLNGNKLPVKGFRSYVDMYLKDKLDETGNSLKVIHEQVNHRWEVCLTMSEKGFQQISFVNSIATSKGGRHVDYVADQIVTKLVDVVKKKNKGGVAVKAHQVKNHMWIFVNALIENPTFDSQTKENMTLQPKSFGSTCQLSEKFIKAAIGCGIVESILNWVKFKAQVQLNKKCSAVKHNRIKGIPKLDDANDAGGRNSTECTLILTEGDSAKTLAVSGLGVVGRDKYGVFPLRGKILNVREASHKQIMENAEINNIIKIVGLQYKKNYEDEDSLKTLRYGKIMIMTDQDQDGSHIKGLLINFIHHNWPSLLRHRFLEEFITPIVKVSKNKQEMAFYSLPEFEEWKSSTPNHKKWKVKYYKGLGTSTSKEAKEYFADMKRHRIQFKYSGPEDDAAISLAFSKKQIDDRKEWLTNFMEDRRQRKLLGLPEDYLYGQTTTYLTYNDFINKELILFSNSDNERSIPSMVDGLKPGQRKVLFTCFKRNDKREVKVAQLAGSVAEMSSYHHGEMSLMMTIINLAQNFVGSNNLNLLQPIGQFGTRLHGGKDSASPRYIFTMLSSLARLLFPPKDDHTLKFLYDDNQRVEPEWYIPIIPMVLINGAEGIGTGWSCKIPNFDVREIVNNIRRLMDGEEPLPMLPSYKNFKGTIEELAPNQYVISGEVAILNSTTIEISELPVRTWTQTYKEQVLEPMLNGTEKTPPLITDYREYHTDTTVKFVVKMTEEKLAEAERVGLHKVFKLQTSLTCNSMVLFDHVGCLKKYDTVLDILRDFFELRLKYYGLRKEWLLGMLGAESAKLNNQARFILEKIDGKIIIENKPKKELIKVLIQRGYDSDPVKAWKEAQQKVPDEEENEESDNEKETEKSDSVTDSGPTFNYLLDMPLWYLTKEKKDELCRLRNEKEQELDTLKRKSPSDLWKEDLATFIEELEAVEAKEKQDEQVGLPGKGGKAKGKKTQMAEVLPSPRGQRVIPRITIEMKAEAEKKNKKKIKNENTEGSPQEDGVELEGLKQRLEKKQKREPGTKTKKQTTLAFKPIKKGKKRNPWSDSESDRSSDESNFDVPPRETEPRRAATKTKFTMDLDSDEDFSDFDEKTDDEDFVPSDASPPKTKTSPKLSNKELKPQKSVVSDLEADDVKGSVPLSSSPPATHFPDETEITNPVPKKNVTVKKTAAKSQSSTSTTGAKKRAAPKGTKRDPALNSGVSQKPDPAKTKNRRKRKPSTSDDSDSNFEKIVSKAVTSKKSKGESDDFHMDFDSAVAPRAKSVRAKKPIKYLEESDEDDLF

Cc1cc(-c2c(F)cc3c(=O)c(C(=O)O)cn4c3c2SC[C@@H]4C)cc(C)n1 [Example 5, (S)-10-(2,6-Dimethyl-4-pyridinyl)-9-fluoro-3-methyl-7-oxo-2,3-dihydro-7H-pyrido[1,2,3-de][1,4]benzothiazine-6-carboxylic acid]
EC50 (human topoisomerase II): 9.4 µM
MTD [1]: 1500 mg/kg
% ILS (B16 melanoma; B16(IP), drug IP, QD1,5,9, 1500 mg/kg total): 66%
Long Term Survivors (B16 melanoma; B16(IP), drug IP, QD1,5,9, 1500 mg/kg total, footnote 5: Day 60, tumor evident): 1/6
antitumor activity (in words) (B16 melanoma; B16 melanoma IP): Day 60; tumor evident; also recorded: good activity
log10 tumor cell kill (B16 melanoma; B16 melanoma IP): 2.0 log10
